These results are taken from paper PMC4854315, “Discovery of a novel allosteric inhibitor-binding site in ERK5: comparison with the canonical kinase hinge ATP-binding site” (Acta Crystallographica. Section D, Structural Biology, 2016).

Bounds are passed on as bounds.

Holding throughout (assay): Z'-LYTE kinase panel
What all share (format): biochemical

The target of assay [1] is T1, BMX (Homo sapiens, UniProt P51813).
T1 construct: purchased ThermoFisher (SelectScreen, Z'-LYTE)
T1 sequence (P51813 1-675): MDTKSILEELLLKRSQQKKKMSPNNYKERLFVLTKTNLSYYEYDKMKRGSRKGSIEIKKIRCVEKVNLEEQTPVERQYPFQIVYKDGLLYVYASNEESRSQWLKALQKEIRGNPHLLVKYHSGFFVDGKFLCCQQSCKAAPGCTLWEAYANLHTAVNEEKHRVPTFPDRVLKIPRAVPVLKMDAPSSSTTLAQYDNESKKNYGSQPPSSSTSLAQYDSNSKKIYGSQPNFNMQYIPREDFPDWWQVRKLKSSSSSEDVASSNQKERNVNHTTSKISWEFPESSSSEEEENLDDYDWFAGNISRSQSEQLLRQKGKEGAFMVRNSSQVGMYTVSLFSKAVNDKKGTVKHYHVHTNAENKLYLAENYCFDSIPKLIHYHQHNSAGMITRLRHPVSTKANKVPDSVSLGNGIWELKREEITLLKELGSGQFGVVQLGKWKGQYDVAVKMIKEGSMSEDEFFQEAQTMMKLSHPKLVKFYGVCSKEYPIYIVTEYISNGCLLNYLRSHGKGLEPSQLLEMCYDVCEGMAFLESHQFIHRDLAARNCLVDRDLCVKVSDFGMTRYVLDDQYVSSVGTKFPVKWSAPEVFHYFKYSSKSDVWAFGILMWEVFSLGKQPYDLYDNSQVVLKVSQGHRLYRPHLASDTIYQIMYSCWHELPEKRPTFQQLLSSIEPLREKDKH
In a few lines: (§1)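 A panel of 225 kinases is tested by Z′-LYTE under the standard protocol, with compounds at 10 µM and results given as percentage inhibition.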

In assay [2] the target is T2, EPHA8 (Homo sapiens, UniProt P29322).
T2 construct: purchased ThermoFisher (SelectScreen, Z'-LYTE)
T2 sequence (P29322 28-1005): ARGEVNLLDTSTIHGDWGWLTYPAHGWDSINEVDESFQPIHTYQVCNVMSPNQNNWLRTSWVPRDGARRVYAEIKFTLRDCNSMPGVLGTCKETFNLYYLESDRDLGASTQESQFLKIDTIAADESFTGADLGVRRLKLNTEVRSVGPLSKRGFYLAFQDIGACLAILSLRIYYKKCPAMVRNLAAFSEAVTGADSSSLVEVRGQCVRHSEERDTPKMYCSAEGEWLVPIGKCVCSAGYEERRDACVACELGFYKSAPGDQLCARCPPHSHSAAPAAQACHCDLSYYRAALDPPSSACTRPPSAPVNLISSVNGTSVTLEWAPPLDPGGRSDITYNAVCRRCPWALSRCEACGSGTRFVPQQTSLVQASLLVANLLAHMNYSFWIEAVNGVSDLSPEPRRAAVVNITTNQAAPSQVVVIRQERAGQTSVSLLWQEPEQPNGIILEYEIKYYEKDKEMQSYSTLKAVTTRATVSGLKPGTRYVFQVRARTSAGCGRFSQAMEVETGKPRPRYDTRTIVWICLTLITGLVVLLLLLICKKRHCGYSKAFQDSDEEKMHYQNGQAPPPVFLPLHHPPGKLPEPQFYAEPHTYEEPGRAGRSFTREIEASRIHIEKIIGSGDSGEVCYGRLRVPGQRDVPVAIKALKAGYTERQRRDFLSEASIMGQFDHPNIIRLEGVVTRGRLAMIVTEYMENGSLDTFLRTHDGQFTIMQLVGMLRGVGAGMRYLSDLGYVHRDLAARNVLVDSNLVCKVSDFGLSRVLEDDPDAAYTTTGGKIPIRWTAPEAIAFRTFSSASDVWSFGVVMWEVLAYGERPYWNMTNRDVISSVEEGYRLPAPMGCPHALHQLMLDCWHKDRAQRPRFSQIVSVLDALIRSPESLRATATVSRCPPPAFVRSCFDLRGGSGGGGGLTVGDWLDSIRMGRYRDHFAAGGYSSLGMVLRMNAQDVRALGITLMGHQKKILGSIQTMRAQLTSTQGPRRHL
The method in brief:
as §1

Assay [3] has as its target T3, FER (Homo sapiens, UniProt P16591).
T3 construct: purchased ThermoFisher (SelectScreen, Z'-LYTE)
The method in brief:
as §1

Assay [4] concerns the target T4, FLT4 (VEGFR3) (Homo sapiens, UniProt P35916).
T4 construct: purchased ThermoFisher (SelectScreen, Z'-LYTE)
Conditions: 10 µM compound, ATP Km app. The method in brief: as §1

The target of assay [5] is T5, JAK1 (Homo sapiens, UniProt P23458).
T5 construct: purchased ThermoFisher (SelectScreen, Z'-LYTE)
The method in brief:
as §1

The target of assay [6] is T6, MAP4K5 (KHS1) (Homo sapiens, UniProt Q9Y4K4).
T6 construct: purchased ThermoFisher (SelectScreen, Z'-LYTE)
In a few lines: as §1

For assay [7], the target named is T7, MAPK13 (p38 delta) (Homo sapiens, UniProt O15264).
T7 construct: purchased ThermoFisher (SelectScreen, Z'-LYTE)
T7 sequence (O15264 1-365): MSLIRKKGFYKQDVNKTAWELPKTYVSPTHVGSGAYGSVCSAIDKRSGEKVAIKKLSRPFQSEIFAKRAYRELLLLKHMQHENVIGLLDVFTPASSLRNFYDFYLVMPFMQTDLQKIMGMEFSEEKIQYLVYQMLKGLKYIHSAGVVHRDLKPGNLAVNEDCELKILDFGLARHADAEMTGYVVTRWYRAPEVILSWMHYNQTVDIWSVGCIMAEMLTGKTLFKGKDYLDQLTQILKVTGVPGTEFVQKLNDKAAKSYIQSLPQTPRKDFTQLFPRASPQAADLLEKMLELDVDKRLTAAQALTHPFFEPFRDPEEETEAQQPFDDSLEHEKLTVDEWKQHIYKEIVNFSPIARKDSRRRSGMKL
In a few lines:
as §1

In assay [8] the target is T8, SGKL (SGK3) (Homo sapiens, UniProt Q96BR1).
T8 construct: purchased ThermoFisher (SelectScreen, Z'-LYTE)
T8 sequence (Q96BR1 1-496): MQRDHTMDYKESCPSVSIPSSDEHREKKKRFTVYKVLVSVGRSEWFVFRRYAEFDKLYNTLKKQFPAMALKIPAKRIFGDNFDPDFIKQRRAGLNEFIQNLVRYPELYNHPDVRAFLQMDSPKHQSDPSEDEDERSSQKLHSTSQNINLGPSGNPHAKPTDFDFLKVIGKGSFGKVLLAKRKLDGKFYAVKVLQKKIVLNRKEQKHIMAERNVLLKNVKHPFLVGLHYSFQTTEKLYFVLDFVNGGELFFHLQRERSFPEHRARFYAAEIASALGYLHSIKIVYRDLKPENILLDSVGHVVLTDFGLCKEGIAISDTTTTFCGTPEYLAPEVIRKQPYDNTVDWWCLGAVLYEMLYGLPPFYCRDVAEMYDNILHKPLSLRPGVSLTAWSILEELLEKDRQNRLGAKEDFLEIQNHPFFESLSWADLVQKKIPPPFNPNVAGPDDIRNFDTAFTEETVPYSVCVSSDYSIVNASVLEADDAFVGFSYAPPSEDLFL
In a few lines: as §1

Assay [9] has as its target T9, SRPK2 (Homo sapiens, UniProt P78362).
T9 construct: purchased ThermoFisher (SelectScreen, Z'-LYTE)
In a few lines: as §1

T6 sequence (Q9Y4K4 whole entry): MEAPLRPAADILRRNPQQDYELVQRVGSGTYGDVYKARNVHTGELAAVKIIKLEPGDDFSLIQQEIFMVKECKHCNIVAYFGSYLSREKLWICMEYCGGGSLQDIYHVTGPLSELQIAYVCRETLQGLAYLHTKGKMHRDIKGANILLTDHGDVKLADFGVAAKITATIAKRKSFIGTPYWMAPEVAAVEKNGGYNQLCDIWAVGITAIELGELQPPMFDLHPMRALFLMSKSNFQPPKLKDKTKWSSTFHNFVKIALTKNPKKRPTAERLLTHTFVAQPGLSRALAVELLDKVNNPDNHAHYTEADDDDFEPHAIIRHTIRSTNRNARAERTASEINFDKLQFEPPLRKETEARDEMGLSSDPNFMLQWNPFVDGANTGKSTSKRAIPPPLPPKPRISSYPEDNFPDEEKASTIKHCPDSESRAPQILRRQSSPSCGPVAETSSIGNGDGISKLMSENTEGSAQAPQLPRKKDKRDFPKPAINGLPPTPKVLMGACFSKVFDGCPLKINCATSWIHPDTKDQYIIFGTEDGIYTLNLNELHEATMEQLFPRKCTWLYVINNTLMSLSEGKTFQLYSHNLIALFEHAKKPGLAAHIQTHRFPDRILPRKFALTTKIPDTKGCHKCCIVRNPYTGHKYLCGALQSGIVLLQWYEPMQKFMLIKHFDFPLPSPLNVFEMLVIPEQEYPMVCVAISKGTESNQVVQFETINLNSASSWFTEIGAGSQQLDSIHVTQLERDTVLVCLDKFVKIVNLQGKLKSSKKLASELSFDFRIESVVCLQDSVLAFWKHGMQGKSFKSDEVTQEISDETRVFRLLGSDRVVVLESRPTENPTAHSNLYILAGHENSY
T4 sequence (P35916 25-1363): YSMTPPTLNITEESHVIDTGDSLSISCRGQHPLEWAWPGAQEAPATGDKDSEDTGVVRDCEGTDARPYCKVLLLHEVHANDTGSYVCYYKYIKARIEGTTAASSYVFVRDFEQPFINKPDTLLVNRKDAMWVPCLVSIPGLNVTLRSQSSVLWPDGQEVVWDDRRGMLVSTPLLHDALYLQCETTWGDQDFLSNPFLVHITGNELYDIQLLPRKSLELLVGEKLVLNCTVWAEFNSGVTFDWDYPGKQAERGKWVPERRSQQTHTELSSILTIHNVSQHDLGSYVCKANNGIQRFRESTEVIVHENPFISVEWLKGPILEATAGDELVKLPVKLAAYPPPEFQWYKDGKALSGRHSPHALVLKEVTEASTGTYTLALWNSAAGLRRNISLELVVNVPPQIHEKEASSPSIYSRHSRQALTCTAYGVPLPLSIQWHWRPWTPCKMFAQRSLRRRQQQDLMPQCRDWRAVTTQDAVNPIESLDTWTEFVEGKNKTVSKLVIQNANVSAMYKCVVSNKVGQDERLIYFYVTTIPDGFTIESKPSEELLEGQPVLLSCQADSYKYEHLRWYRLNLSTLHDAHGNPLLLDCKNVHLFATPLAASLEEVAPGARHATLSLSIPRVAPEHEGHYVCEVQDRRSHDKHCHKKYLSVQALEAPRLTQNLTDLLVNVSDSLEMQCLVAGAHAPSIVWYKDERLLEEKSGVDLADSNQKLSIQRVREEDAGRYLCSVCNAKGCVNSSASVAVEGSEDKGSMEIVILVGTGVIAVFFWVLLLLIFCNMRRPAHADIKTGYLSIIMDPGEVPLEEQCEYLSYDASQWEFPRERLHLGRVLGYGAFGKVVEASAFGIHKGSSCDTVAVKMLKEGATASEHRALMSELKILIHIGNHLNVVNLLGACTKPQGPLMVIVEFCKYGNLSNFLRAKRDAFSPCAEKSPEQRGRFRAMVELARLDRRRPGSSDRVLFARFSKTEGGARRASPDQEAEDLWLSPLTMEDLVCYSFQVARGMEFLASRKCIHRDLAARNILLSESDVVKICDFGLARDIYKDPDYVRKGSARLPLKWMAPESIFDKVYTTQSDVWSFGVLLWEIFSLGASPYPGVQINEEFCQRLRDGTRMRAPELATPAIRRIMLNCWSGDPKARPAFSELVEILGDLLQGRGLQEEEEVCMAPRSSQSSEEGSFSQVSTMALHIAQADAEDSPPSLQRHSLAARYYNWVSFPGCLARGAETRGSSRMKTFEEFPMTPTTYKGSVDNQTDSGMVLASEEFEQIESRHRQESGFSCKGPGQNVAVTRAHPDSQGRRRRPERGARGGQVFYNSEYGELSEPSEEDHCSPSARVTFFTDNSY
T3 sequence (P16591 whole entry): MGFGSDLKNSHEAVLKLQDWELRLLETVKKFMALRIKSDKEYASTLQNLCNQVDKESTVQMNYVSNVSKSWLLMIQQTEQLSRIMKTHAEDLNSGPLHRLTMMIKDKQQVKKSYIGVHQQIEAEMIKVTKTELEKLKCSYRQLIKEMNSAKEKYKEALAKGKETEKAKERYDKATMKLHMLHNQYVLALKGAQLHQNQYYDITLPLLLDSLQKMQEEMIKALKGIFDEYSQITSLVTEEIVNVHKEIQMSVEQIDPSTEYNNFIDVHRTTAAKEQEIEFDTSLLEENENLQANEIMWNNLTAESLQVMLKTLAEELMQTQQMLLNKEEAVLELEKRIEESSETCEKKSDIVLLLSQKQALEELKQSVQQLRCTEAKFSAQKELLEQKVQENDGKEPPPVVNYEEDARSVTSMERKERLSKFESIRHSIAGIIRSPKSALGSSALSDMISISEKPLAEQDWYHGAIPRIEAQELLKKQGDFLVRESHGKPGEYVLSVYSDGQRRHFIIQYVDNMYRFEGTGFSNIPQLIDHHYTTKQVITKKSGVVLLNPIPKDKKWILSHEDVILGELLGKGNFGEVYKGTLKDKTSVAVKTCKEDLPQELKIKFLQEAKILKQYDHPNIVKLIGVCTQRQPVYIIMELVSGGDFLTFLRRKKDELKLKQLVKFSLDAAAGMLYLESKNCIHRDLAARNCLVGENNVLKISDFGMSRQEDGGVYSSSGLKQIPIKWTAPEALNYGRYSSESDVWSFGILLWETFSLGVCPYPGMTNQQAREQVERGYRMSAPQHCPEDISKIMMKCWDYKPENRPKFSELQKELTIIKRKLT
T9 sequence (P78362 whole entry): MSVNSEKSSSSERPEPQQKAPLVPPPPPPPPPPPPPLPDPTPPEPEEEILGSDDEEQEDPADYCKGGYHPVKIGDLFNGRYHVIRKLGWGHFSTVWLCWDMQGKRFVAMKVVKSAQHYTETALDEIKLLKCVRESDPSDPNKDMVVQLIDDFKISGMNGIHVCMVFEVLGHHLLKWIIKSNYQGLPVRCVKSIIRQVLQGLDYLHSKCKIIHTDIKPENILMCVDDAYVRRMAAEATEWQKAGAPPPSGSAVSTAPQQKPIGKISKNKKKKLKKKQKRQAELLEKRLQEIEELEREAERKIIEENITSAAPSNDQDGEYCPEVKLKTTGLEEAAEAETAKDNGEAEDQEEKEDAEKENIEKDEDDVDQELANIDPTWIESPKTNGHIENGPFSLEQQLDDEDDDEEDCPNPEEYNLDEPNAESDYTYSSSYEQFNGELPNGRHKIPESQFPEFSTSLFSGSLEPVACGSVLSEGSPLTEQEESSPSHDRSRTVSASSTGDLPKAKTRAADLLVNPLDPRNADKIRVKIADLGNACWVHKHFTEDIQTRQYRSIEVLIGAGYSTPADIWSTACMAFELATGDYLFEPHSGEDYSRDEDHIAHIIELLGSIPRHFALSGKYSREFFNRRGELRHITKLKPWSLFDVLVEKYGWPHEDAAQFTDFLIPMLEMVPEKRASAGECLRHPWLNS
T5 sequence (P23458 whole entry): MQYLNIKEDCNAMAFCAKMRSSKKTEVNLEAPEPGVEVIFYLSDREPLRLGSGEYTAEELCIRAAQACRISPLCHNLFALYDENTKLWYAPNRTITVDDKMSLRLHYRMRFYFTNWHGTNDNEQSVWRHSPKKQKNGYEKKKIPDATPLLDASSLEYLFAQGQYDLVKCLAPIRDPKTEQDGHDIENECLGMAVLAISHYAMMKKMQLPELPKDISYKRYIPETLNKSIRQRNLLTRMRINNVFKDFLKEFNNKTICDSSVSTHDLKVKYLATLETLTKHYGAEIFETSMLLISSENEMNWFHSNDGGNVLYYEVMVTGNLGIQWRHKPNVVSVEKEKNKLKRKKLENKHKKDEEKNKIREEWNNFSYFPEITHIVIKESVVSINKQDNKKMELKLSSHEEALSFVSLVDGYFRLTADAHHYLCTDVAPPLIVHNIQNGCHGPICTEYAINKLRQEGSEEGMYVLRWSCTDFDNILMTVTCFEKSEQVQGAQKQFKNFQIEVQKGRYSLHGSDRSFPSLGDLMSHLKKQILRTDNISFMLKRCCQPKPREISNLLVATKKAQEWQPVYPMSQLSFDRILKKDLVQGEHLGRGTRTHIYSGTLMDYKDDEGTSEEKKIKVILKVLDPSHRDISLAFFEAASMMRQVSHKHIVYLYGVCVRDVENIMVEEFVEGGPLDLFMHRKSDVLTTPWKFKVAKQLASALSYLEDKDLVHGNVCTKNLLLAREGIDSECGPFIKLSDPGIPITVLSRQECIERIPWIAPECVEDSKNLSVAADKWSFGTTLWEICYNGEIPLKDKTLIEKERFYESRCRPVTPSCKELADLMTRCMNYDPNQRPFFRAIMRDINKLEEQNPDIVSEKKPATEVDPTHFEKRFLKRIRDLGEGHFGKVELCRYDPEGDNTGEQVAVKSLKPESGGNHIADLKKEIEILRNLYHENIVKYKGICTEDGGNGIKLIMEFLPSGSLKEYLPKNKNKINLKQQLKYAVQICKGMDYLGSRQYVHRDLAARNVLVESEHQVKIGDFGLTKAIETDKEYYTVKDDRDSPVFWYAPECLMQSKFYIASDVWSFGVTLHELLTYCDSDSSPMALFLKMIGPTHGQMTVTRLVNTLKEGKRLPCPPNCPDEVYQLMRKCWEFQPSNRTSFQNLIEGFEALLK

Take “XMD8-92 [Compound 2, reference compound]”: the “BMX % Inhibition” value in assay [1] (10 µM compound, ATP Km app) is given as 41%. Besides, in assay [2] (10 µM compound, ATP Km app), the “EPHA8 % Inhibition” value stood at 23%. The “FER % Inhibition” value in assay [3] (10 µM compound, ATP Km app) was 79%. Further, in assay [4], the “FLT4 (VEGFR3) % Inhibition” value is on record as 4%. Also, the “JAK1 % Inhibition” value in assay [5] (10 µM compound, ATP Km app) was 32%. Also, the “MAP4K5 (KHS1) % Inhibition” value in assay [6] (10 µM compound, ATP Km app) stood at 85%. Besides, in assay [7] (10 µM compound, ATP Km app), the “MAPK13 (p38 delta) % Inhibition” value was found to be 1.54%. The “SGKL (SGK3) % Inhibition” value in assay [8] (10 µM compound, ATP Km app) stood at 96%. Also, in [9] (10 µM compound, ATP Km app), the “SRPK2 % Inhibition” value is -19%.

In general, inhibition refers to the relative decrease from the control value, in per cent. With `Cc1cc(Nc2nc(N)nn2C(=O)NC(C)C)ccc1Cl` [Compound 5], the inhibition at 10 µM in assay [1] was 19%; in assay [2] it was 0.0057%; in [3], 22%; in assay [4], greater than 80%; in [5] it was 60%; in assay [6] it was 65%. Besides, the figures for the inhibition at 10 µM in [7], in [8] and in assay [9] were -0.07%, -11% and -5%, respectively. The “FLT4 (VEGFR3) % Inhibition” value in assay [4] (listed as SN1109056190, 10 µM) was determined as 86%.

`Cc1ncc(-c2nc(Nc3ccc(C(=O)NCCN4CCCCC4)cc3)ncc2F)n1C(C)C` [Compound 3]: the inhibition at 10 µM in assay [1] stood at 68%; in assay [2], 50%; in assay [3] it was 105%; in assay [4], 99%; in assay [5], 101%; in assay [6] it was 97%. The inhibition at 10 µM in [7] was 65%; in assay [8], 67%; in assay [9], 25%.
